The test system of one assay is E. coli W3110. The experiment in a line: MIC by broth microdilution. The format is cell-based, Escherichia coli. To be noted: for antimicrobial activity: relative to parent compound. In short, it runs like this:
(§1)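 Exponential-phase cultures (OD600 0.5, 37 °C aerobic), diluted 100-fold in CAMHB, were added to twofold compound dilution series. Keio strains grown with 50 µg ml^−1 kanamycin. Plates incubated overnight at 37 °C, shaking at 600 r.p.m.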
On the technique in general: Dilution methods test growth across graded concentrations, often in twofold steps.

The next assay relates to K. pneumoniae ATCC 29665. Description: MIC by broth microdilution. The class given is cell-based, Klebsiella pneumoniae. Summed up: as §1
The test system of the next assay is P. aeruginosa ATCC 27853. The experiment in a line: MIC by broth microdilution. The class given is cell-based. In short, it runs like this: (§2)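 Broth microdilution in CAMHB with twofold compound series; exponential-phase cultures (OD600 0.5) diluted 100-fold as inoculum, Keio strains pre-grown with 50 µg ml^−1 kanamycin. Overnight incubation at 37 °C, shaking 600 r.p.m. MIC is lowest concentration without visible growth, median of at least triplicates.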

The test system of assay [1] is S. aureus ATCC 29213 / ATCC BAA1717. The experiment in a line: MIC by broth microdilution. The class given is cell-based. In short, it runs like this:
as §2

The subject of assay [2] is E. coli BW25113 and single-gene knockouts. The experiment in a line: MIC on E. coli strains of the Keio collection. The class given is cell-based, Escherichia coli. To be noted: for MIC: Escherichia coli. Here is the method:
(§3) MIC was determined by broth microdilution. Single-colony cultures were grown to exponential phase (OD600 of 0.5) aerobically at 37 °C. In case of strains from the Keio collection, 50 µg ml^−1 kanamycin was supplemented to the media to ascertain a homogeneous population. The bacterial suspensions were diluted 100-fold in CAMHB and 50 µl was added to a twofold serial dilution series of test compounds (50 µl per well) in polypropylene 96-well microtitre plates to reach a volume of 100 µl. The plates were sealed with breathable membranes and incubated overnight at 37 °C with constant shaking (600 r.p.m.). The MIC was determined as the lowest concentration at which no visible bacterial growth was observed as compared with the inoculum controls from the median of a minimum of triplicates.

The next assay deals with E. coli ATCC 25922. Description: MIC by broth microdilution. The class given is cell-based. Here is the method: as §3, with “r.p.m.).” for “r.p.m.). The MIC was determined as the lowest concentration at which no visible bacterial growth was observed as compared with the inoculum controls from the median of a minimum of triplicates.”
Assay [3] relates to 60-resistant (60-r) isolates of E. coli W3110. The experiment in a line: microbe, parasite or virus in culture. The class given is cell-based, Escherichia coli. To be noted: for MIC: Escherichia coli. As to the method:
as §3
The plates were incubated at 37 °C and checked for growth after 24 and 48 h. […] Nine colonies with an increased MIC were selected for further analysis and stored as glycerol stocks.

Assay [4] relates to E. coli W3110 gyrA S97L, S83L, D87N. The experiment in a line: MIC against CRISPR/Cas9 gyrA point mutants. The class given is cell-based, Escherichia coli. To be noted: for MIC: Escherichia coli. Here is the method:
as §3
Mutants of the DNA gyrase subunit A encoding gene (gyrA) were constructed following the protocol for gene editing via the CRISPR–Cas9 system. Strains and plasmids used are listed in Supplementary Table 15, and primers used can be found in Supplementary Table 16. The following mutations were created: S97L in E. coli W3110. Two common mutations in the gyrA gene that give resistance to fluoroquinolone antibiotics were created in E. coli W3110, namely S83L and D87N. To create the gyrA (S97L) mutants, the construct psgRNA-gyrA-M5 was assembled as follows: The 20-nt spacer sequence was introduced by PCR on pTargetF using primers gyrA_P11 and gyrA_P12, the homology-directed repair (HDR) arms were amplified from E. coli W3110 genomic DNA by PCR using primer pairs gyrA_P05 and gyrA_P013, and gyrA_P08 and gyrA_P14. The three PCR fragments generated were cloned into the SpeI and BglII digested pTargetF via Gibson assembly. To avoid off-target effects of CRISPR, besides desired point mutation for gyrA (S97L), four other silent point mutations were also included in the HDR template. Consequently, the amino acid sequence of gyrA will remain the same in the generated mutant except for the desired mutation. Similarly, constructs psgRNA-gyrA-S83L and psgRNA-gyrA-D87N were created to introduce mutations S83L and D87N in gyrA, respectively. In psgRNA-gyrA-S83L, spacer sequence was introduced using primers gyrA_P12 and gyrA_P17, HDR template was amplified using primer pairs gyrA_P05 and gyrA_P18, and gyrA_P08 and gyrA_P19. In psgRNA-gyrA-D87N, spacer sequence was introduced using primers gyrA_P12 and gyrA_P20, HDR template was amplified using primer pairs gyrA_P05 and gyrA_P21, and gyrA_P08 and gyrA_P22. The verified constructs for gyrA engineering were transformed into E. coli W3110 carrying pCas9, and plated in LB containing kanamycin (50 µg ml^−1) for the selection of the pCas9 plasmid and spectinomycin (100 µg ml^−1) for the selection of psgRNA-gyrA-X. The plates were incubated at 30 °C. Plasmids were cured by growing the strains with 0.5 mM isopropylthiogalactoside with no antibiotics to lose first the psgRNA-gyrA plasmids. After losing the spectinomycin resistance, the strain was grown in LB with no antibiotics at 42 °C to lose the pCas plasmid. Colony PCR was performed on plasmid-free colonies using primers gyrA_P9 and gyrA_P10, and PCR products were sequenced to confirm the desired mutation

The test system of assay [5] is clinical isolates of E. coli. The experiment in a line: MIC against clinical isolates and potentiation by 4 µM PMBN. To be noted: for MSC: with 4 µM PMBN; for MIC: Escherichia coli. The format is cell-based, Escherichia coli. As to the method:
as §3, with “r.p.m.).” for “r.p.m.). The MIC was determined as the lowest concentration at which no visible bacterial growth was observed as compared with the inoculum controls from the median of a minimum of triplicates.”

Where [6] appears, read: Klebsiella pneumoniae, ATCC29665, read-out: MIC K. pneumoniae ATCC 29665.
Where [7] appears, read: BW25113, JW3596 ΔrfaC, LPS disruption (genetic).
The mark [8] stands for this setting: BW25113, read-out: MIC E. coli BW25113, parent strain.
The mark [9] stands for this setting: E. coli W3110 gyrA D87N (FQ-resistant 2).
The mark [10] stands for this setting: E. coli W3110 gyrA S83L (FQ-resistant 1).
The mark [11] stands for this setting: E. coli W3110 gyrA S97L (LEI-800-resistant).
Where [12] appears, read: Klebsiella pneumoniae, ATCC29665, broth microdilution, read-out: MIC K. pneumoniae ATCC 29665.

Each structure is given as a SMILES string. In brackets after ≈: the same amount, converted by molar mass. Several values for one entry are separate records, joined by “and”; a condition that tells them apart may be missing. Equal values may be shown once. Read-outs that look alike come from different tables or passages of the source.

In the case of `O=C(O)c1cn(C2CC2)c2cc(N3CCNCC3)c(F)cc2c1=O` [CIP, ciprofloxacin], the MIC against E. coli W3110 (Escherichia coli, W3110) was 7.8 ng/mL; with E. coli W3110 (Escherichia coli, W3110, read-out: MIC E. coli WT strain), 0.024 µM; in the assay with K. pneumoniae ATCC 29665 (setting [6]), 0.012 µM (≈ 0.00398 µg/mL); in the assay on P. aeruginosa ATCC 27853 (Pseudomonas aeruginosa, ATCC27853, read-out: MIC P. aeruginosa ATCC 27853), 0.377 µM (≈ 0.125 µg/mL); in [1] (Staphylococcus aureus, read-out: MIC S. aureus ATCC 29213), 0.755 µM (≈ 0.25 µg/mL); in [1] (Staphylococcus aureus, read-out: MIC S. aureus ATCC BAA1717), over 0.755 µM. The MIC in assay [2] (BW25113, JW3594 ΔrfaD) is over 0.048 µM; in assay [2] (setting [7]) it was 0.024 µM (≈ 0.00795 µg/mL); in assay [2] (BW25113, JW3600 ΔrfaY), 0.024 µM (≈ 0.00795 µg/mL); in assay [2] (BW25113, JW3602 ΔrfaI), 0.024 µM (≈ 0.00795 µg/mL); in [2] (BW25113, JW3605 ΔrfaP), 0.048 µM (≈ 0.0159 µg/mL); in assay [2] (BW25113, JW5503 ΔTolC) it was 0.024 µM (≈ 0.00795 µg/mL). The MIC in [2] (setting [8]) was 0.024 µM (≈ 0.00795 µg/mL); in the assay on E. coli ATCC 25922 (Escherichia coli, ATCC25922, read-out: MIC E. coli ATCC 25922) it was 0.024 µM (≈ 0.00795 µg/mL); in assay [3] (E. coli W3110 60-r1), 0.024 µM and 0.0078 µg/mL; in assay [3] (E. coli W3110 60-r3), 0.024 µM and 0.0078 µg/mL; in [3] (E. coli W3110 60-r6), 0.024 µM and 0.0078 µg/mL; in [4] (setting [9]), over 1.5 µM. For the same molecule, the MIC in [4] (setting [10]) was over 1.5 µM; in [4] (setting [11]) it was 0.024 µM (≈ 0.00795 µg/mL).

As to `O=S(=O)(NCCNCc1ccc(-c2ccc(F)nc2)cc1)c1cccc2cnccc12` [Compound 60], the MIC in the assay on E. coli W3110 (Escherichia coli, W3110, read-out: MIC E. coli W3110) is 6.25 µM; in the assay with K. pneumoniae ATCC 29665 (setting [12]), 25 µM (≈ 10.9 µg/mL); in the assay on K. pneumoniae ATCC 29665 (setting [6]), 6.25 µM (≈ 2.73 µg/mL); in the assay on P. aeruginosa ATCC 27853 (Pseudomonas aeruginosa, ATCC27853; read-out: MIC P. aeruginosa ATCC 27853) it was over 50 µM; in assay [1] (Staphylococcus aureus; read-out: MIC S. aureus ATCC 29213) it was over 50 µM; in assay [1] (Staphylococcus aureus; read-out: MIC S. aureus ATCC BAA1717), over 50 µM. In addition, the MIC in [2] (setting [8]) is 6.25 µM (≈ 2.73 µg/mL); with E. coli ATCC 25922 (Escherichia coli, ATCC25922; read-out: MIC E. coli ATCC 25922), 12.5 µM (≈ 5.46 µg/mL); in [5] (E. coli 1075 (MDR), read-out: MIC) it was over 50 µM; in assay [5] (E. coli 552059.1, read-out: MIC), 50 µM; in [5] (E. coli 552060.1, read-out: MIC) it was 50 µM; in [5] (E. coli MVAST0072 (MDR), read-out: MIC) it was 50 µM. Also, the MIC in assay [5] (E. coli mcr-1 (MCR)) was 50 µM; in assay [5] (NCTC13463, E. coli NCTC13463 (ESBL), read-out: MIC), 12.5 µM; in assay [5] (NCTC13846, E. coli NCTC13846 (MDR, mcr-1)) it was over 50 µM; in assay [3] (E. coli W3110 60-r1), over 100 µM; in assay [3] (E. coli W3110 60-r3) it was 100 µM (≈ 43.7 µg/mL); in [3] (E. coli W3110 60-r6), over 100 µM. Moreover, the MIC was 50 µM (≈ 21.8 µg/mL) in assay [4] (setting [9]), 25 µM (≈ 10.9 µg/mL) in assay [4] (setting [10]) and over 50 µM in [4] (setting [11]). Moreover, the FC in assay [5] (E. coli 1075, fold change in MIC after 4 µM PMBN) is on record as over 2; in [5] (E. coli 552059.1, fold change in MIC after 4 µM PMBN), 16; in assay [5] (E. coli 552060.1, fold change in MIC after 4 µM PMBN), 16; in assay [5] (E. coli MVAST0072, fold change in MIC after 4 µM PMBN), 16; in [5] (E. coli NCTC13463, fold change in MIC after 4 µM PMBN) it was 8; in [5] (E. coli NCTC13846, fold change in MIC after 4 µM PMBN), over 2. The FC in assay [5] (E. coli mcr-1, fold change in MIC after addition of 4 µM PMBN) was 4. Moreover, the MSC in [5] (E. coli 1075) came out at 25 µM; in assay [5] (E. coli 552059.1) it was 3.1 µM; in assay [5] (E. coli 552060.1) it was 3.1 µM; in [5] (E. coli MVAST0072), 3.1 µM; in assay [5] (E. coli NCTC13463), 1.6 µM; in assay [5] (E. coli NCTC13846), 25 µM. Besides, the MSC in assay [5] (E. coli mcr-1) is recorded as 12.5 µM. Moreover, the “increase in MIC in resistant colonies” value in [3] (all nine colonies) was “at least an eightfold increase in MIC”. Besides, the “susceptibility of gyrA S97L mutant” value in [4] (CRISPR–Cas9 S97L) is reported as “resistant”.

As for `O=S(=O)(NC[C@H]1CC[C@@H](c2ccc(-c3ccc(F)nc3)cc2)N1)c1cccc2cnccc12` [LEI-801], the MIC in the assay on E. coli W3110 (Escherichia coli, W3110, WT, broth microdilution, read-out: MIC E. coli W3110) is over 50 µM; in the assay on E. coli W3110 (WT, broth microdilution, listed as LEI-801 (99), read-out: MIC E. coli W3110) it was over 50 µM; in the assay with K. pneumoniae ATCC 29665 (setting [12]), over 50 µM; in the assay with K. pneumoniae ATCC 29665 (broth microdilution, listed as LEI-801 (99), read-out: MIC K. pneumoniae ATCC 29665), over 50 µM; in assay [2] (BW25113, JW3594 ΔrfaD) it was 3.1 µM (≈ 1.43 µg/mL); in [2] (setting [7]) it was 3.1 µM (≈ 1.43 µg/mL). Besides, the MIC in [2] (BW25113, JW3600 ΔrfaY) was over 50 µM; in assay [2] (BW25113, JW3602 ΔrfaI), over 50 µM; in assay [2] (BW25113, JW3605 ΔrfaP), 12.5 µM (≈ 5.78 µg/mL); in assay [2] (BW25113, JW5503 ΔTolC), over 50 µM; in [2] (setting [8]), over 50 µM. Moreover, the “antimicrobial activity” value was “completely inactive” with E. coli W3110 (listed as 99) and “inactive” with E. coli W3110 (listed as 99 (LEI-801)). Further, the “potency against ΔtolC efflux pump mutant” value in [2] is on record as “No increase in potency”.

The values are drawn from PMC11374673, “Discovery of isoquinoline sulfonamides as allosteric gyrase inhibitors with activity against fluoroquinolone-resistant bacteria” (Nature Chemistry, 2024).
